Data from patent US20250214960A1, “COMPOUNDS HAVING ACTIVITY OF DEGRADING GSPT1 AND APPLICATION THEREOF” (SHANGHAI MEIZER PHARMACEUTICALS CO., LTD., priority 2021, published 2025).
Where two headings read alike, the source gives them in different places.

Experiments:
HNT-34 cells = assay: CTG method, inhibition of HNT-34 cell proliferation; type: cell-based; conditions: HNT-34, 72 hours; read-out: Cellular proliferation inhibition IC50
Description: (§1) Test Example 2: CTG Method for Detecting the Inhibitory Effect of Compounds of Formula on the Proliferation of HNT 34 or HL-60 Cells
(§2) HNT-34 or HL-60 cells were taken and cultured in RPMI1640 medium containing 20% fetal bovine serum. The cells were inoculated on a 96 well plate, with 1×10^4 cells per well, and incubated at 37° C. in a […] incubator. After adding the test compound, it was incubated for 72 hours. Then an appropriate amount of CTG reagent was added, the luminescence value was measured, and the inhibition rate was calculated.

[1] = test system: MV-4-11 subcutaneous transplant tumor; assay: In vivo efficacy in MV-4-11 subcutaneous transplant tumors; design: species or system SCID mice; conditions: tumor volume on the 27th day
Description: Test Example 4: Compound's In Vivo Efficacy in MV-4-11 Subcutaneous Transplant Tumors Experimental method: Human acute monocytic leukemia cell line MV-4-11 was used to construct a subcutaneous transplant tumor model in SCID mice. Grouping: solvent group, reference compound (IV: 2 mg/kg, Day 0-12; IP: 20 mg/kg, Day 13-26) group, 5-17 and 5-22 (IV: 0.5 mg/kg, Day 0-12; IP: 10 mg/kg, Day 13-26), with 5 animals in each group, once a day. The tumor volume on the 27th day was measured and the tumor inhibition rate was calculated. Tumor inhibition rate (%)=[(tumor volume in solvent group−tumor volume in drug group)/tumor volume in solvent group]×100%

Jeko-1 cells = assay: CCK8 method, inhibition of Jeko-1 cell proliferation; type: cell-based; conditions: Homo sapiens; Jeko-1, 72 hours; read-out: Cellular proliferation inhibition IC50
Description: Test Example 3: CCK8 Method for Detecting Inhibition of Jeko-1 Cell Proliferation by Compound of Formula
Cell culture: The Jeko-1 cell line (human lymphoma cells) was cultured in RPMI-1640 complete medium containing […] and 1% penicillin streptomycin, and incubated in an incubator at 37° C., 5% CO2, and saturated humidity.
Cell laying: Jeko-1 cells in logarithmic growth phase was taken, centrifuged, and an appropriate amount of complete culture medium was added to obtain a single-cell suspension, a hemocytometer was used for cell counting, and a cell suspension of 1.5×10^5 cells/mL was prepared, the cells were inoculated into a 96 well culture plate at a rate of 100 μL cell suspension per well and incubated in a CO2 cell incubator for 24 hours.
CCK-8 detection: 72 hours after administration, 10% CCK-8 solution was added to each well, placed in a CO2 cell culture incubator, and incubated for 1-4 hours. The absorbance of each well was measured using a microplate reader at 450 nm.
Calculation of cellular proliferation inhibition rate:
Cellular proliferation inhibition rate (%)=[(Ac−As)/(Ac−Ab)]×100% • As: absorbance in experimental wells (including cells, culture medium, CCK-8 solution, and drug solution) • Ac: absorbance in control wells (including cells, culture medium, CCK-8 solution, without drugs) • Ab: absorbance in blank wells (including culture medium, CCK-8 solution, without cells or drugs)

HL-60 cells = assay: CTG method, inhibition of HL-60 cell proliferation; type: cell-based; conditions: Homo sapiens; HL-60, 72 hours; read-out: Cellular proliferation inhibition IC50
Description: as §1, §2

GSPT1 protein = biological target: T1, GSPT1 protein (Homo sapiens, UniProt P15170+Q96SW2); assay: Western blot detection of degradation activity of GSPT1 protein in Jeko-1 cells; type: cell-based; conditions: JeKo-1, 24 h, read-out: GSPT1 degradation rate (%)
T1 construct: endogenous in cells; host or cells: Jeko-1
T1 sequence (P15170 whole entry): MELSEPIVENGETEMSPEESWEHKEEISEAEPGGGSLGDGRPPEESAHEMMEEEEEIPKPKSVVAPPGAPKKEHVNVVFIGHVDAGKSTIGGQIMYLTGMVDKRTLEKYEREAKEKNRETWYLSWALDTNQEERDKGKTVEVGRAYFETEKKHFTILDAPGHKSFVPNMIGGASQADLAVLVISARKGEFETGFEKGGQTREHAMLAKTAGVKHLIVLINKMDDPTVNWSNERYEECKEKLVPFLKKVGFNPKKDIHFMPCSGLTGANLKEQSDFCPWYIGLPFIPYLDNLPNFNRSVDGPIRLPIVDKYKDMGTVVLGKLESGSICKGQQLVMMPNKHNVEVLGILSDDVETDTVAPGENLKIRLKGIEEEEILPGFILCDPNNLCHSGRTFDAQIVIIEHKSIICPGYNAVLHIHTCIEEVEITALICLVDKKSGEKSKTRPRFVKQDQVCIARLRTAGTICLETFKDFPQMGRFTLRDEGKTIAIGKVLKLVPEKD
T1 sequence (Q96SW2 whole entry): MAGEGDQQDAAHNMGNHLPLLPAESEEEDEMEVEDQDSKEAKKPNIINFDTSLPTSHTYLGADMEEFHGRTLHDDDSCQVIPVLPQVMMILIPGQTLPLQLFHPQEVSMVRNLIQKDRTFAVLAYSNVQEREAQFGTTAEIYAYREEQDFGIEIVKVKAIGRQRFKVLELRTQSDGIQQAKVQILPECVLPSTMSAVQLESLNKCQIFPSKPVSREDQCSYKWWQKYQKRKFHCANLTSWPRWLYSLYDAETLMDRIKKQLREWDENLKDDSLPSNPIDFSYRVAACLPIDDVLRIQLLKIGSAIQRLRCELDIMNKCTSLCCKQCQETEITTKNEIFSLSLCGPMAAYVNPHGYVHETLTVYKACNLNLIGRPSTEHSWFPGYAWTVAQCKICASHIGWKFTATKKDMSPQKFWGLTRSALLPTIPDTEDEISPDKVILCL
T1 sequence (Q16531 whole entry partner): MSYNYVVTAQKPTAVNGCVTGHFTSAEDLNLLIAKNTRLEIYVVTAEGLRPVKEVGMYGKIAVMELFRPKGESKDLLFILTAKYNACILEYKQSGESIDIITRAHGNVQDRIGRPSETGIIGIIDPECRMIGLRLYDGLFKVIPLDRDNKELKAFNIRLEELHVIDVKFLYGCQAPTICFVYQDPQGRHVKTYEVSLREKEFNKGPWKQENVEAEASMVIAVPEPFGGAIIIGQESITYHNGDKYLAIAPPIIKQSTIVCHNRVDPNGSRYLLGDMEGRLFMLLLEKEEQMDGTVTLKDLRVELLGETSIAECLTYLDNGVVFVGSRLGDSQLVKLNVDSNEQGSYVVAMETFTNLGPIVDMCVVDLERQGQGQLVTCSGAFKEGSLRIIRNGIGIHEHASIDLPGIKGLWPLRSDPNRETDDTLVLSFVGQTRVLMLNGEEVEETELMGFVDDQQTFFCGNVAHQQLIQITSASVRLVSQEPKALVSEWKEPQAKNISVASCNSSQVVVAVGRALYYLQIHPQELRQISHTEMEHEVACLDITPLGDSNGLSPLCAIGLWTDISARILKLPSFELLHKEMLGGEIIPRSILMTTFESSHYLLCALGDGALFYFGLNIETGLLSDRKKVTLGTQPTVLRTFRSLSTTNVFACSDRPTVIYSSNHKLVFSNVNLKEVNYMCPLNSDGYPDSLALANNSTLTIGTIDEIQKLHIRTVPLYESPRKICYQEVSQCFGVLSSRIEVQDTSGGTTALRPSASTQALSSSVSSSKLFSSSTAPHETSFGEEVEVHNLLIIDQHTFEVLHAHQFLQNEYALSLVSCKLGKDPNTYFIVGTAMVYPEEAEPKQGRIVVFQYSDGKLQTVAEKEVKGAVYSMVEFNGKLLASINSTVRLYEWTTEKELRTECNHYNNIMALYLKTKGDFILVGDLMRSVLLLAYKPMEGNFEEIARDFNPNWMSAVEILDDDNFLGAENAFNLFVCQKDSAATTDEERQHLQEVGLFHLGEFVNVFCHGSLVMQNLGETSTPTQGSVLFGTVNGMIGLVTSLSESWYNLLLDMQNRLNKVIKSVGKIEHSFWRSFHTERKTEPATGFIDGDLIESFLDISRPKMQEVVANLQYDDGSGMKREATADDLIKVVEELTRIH
In short: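 Jeko-1 cells in RPMI1640 with 20% FBS treated with compound or DMSO for 24 h at 37° C. GSPT1 detected in lysates by Western blot with GAPDH as internal reference. Band intensities quantified by gray-level analysis to calculate GSPT1 degradation rate.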

[2] = IV 0.5 mg/kg Day 0-12, IP 10 mg/kg Day 13-26, once a day

Structure (SMILES) | IC50 (HNT-34 cells) [nM] | Tumor inhibition rate (%) [1, 2] [%] | IC50 (Jeko-1 cells) [nM] | IC50 (HL-60 cells) [nM] | inhibition at 0.1 µM (GSPT1 protein; 100 nM, Jeko-1 cells, 24 hours) [%] | inhibition at 10 µM (GSPT1 protein; 10 μM, Jeko-1 cells, 24 hours) [%] | inhibition at 0.1 µM (GSPT1 protein) [%] | inhibition at 10 µM (GSPT1 protein) [%] | Tumor inhibition rate (%) ([1]; IV 2 mg/kg Day 0-12, IP 20 mg/kg Day 13-26, once a day)
CC(C)(C)OC(=O)N[C@H](C(=O)NCc1ccc2c(c1)CN(C1CCC(=O)NC1=O)C2=O)c1ccccc1Cl (stereo partly drawn) [Compound 5-17, Tert butyl ((1S)-1-(2-chlorophenyl)-2-((2-(2,6-dioxopyridin-3-yl)-1-oxoisoidoline-5-yl)methyl)amino)-2-oxoethyl) carbamate] | 3.2 | 99.6 | 0.1 | 4.2 | 94.2 | 95.6 | – | – | –
CC(C)OC(=O)N[C@H](Cc1ccccc1)C(=O)NCc1ccc2c(c1)CN(C1CCC(=O)NC1=O)C2=O (stereo partly drawn) [Compound 5-22, Isopropyl ((2R)-1-((2-(2,6-dioxypiperidin-3-yl)-1-oxoisoindolin-5-yl)methyl)amino)-1-oxo-3-phenylprop-2-yl) carbamate] | 21.3 | 99.8 | 0.6 | 18.6 | – | – | 77.7 | 95.7 | –
O=C1CCC(N2Cc3cc(CNC(=O)C(F)(F)c4ccc(Cl)cc4)ccc3C2=O)C(=O)N1 (stereo not shown) [Reference compound, reference compound] | – | – | – | – | – | – | – | – | 28.3
